The IC50 is the concentration that inhibits the measured activity by half. As usually defined, the half-life is how long it takes for the measured level to halve. Usually Papp A→B stands for how fast a substance crosses the layer from the apical side. A lower Papp A→B goes with poor permeation. Usually efflux ratio stands for a quotient of directional permeabilities that is used to spot active efflux.

The target in one series is T1, NMDA NR1/NR2B receptor (Homo sapiens, UniProt Q05586+Q13224).
T1 construct: host or cells: HEK293, tetracycline-inducible expression
The experiment in a line: In vitro NMDA NR1/NR2b cell assay (FLIPR, intracellular calcium induced by glycine/glutamate). To be noted: HEK293 cells expressing NMDA NR1/NR2B, 20 μM glycine, 1 μM glutamate, compounds of the invention (Table 1). It counts as cell-based. The method, then:
A human HEK293 cell line with tetracyclin-inducible expression of NMDA NR1/NR2B receptor was used as a test system for compound efficacy and potency. The cell line was purchased from ChanTest, Catalog # CT6121. Compound activity was determined by measuring the effect of compounds on intracellular calcium concentration induced by glycine/glutamate agonism in a FLIPRtetra system (Molecular Devices).
The cells were obtained as frozen cells in cryo-vials and stored until use at −150° C. Cells were grown in culture medium (DMEM/F12, 10% FBS, 5 μg/mL Blasticidin, 150 μg/mL Zeozin, 500 μg/mL Geneticin). […] For sub-culturing the cells were detached from flasks by Versene. For the assay, cells were detached, washed twice with induction medium (DMEM/F12 without glutamine, 10% FBS, 2 μg/mL Tetracycline, 2 mM Ketamine) and seeded to 384 well pure coat amine plates (BD 359324, 50000 cells per well in 50 μl) 48 h prior to assay in induction medium.
The test compounds were dissolved in 100% DMSO at a concentration of 10 mM and in a first step diluted in DMSO to a concentration of 5 mM, followed by serial dilution steps in 100% DMSO. Dilution factor and number of dilution steps may vary according to needs. Typically 8 different concentrations by 1:5 dilutions were prepared in duplicate, further intermediate dilutions (1:37.5) of the substances were carried out with aqueous assay buffer (137 mM NaCl, 4 mM KCl, 1.8 mM CaCl, 10 mM HEPES, 10 mM Glucose, pH 7.4) resulting in a compound concentration 3 times above the final test concentration and DMSO at 2.7% resulting in 0.9% final DMSO concentration in the assay.
At the assay day cells were washed 3× with assay puffer, 10 μL buffer remained in the wells after washing. 10 μL Ca kit loading buffer (AAT Bioquest) was added to the cells and the plates were incubated with lid for 60 minutes at r.t. 20 μl assay buffer containing 60 μM glycine (20 μM final) and 3 μM glutamate (1 μM final) was added to column 1-23. Fluorescence (indicating the calcium influx as a result of the NR1/NR2B ion channel activation) was read on the FLIPRtetra device for 60 seconds to monitor the glutamate induced effects. After 2 minutes 20 μL of compound or controls (row 1-22) in assay buffer were carefully added to the wells. […] The average of 2 measurements at 5 minutes and 5 min 10 seconds after compound addition is calculated and further used for IC50 calculations. Each assay microtiter plate contained wells (in column 23 or 24) with DMSO controls instead of compound as controls for glycine/glutamate induced fluorescence (high controls) and wells with 1 μM of a reference NR2b NAM as low controls (Compound 22; reference: Layton, Mark E et al, ACS Chemical Neuroscience 2011, 2(7), 352-362).
The output file of the reader contains the well number and measured average fluorescence units. For data evaluation and calculation, the measurement of the low control was set as 0% control and the measurement of the high control was set as 100% control. The IC50 values were calculated using the standard 4 parameter logistic regression formula. Calculation: [y=(a−d)/(1+(x/c)^b)+d], a=low value, d=high value; x=conc M; c=IC50 M; b=slope.
On the technique in general: Calcium assays in cells follow changes in intracellular calcium, usually with a dye or a luminescent sensor.

Series [1] is described as follows: Metabolic stability in pooled human liver microsomes. It counts as in vitro ADME. The settings on record: pH 7.6; pooled human liver microsomes 1 mg/mL, 1 μM compound, 37° C., NADPH; read-out: Half-life - t½ human liver microsomes. From the text: Stability in human liver microsomes refers to the susceptibility of compounds to biotransformation in the context of selecting and/or designing drugs with favorable pharmacokinetic properties. The primary site of metabolism for many drugs is the liver. Human liver microsomes contain the cytochrome P450s (CYPs), and thus represent a model system for studying drug metabolization in vitro. Enhanced stability in human liver microsomes is associated with several advantages, including increased bioavailability and adequate half-life, which can enable lower and less frequent dosing of patients. Thus, enhanced stability in human liver microsomes is a favorable characteristic for compounds that are to be used for drugs.
The metabolic degradation of the test compound was assayed at 37° C. with pooled human liver microsomes. The final incubation volume of 60 μl per time point contains TRIS buffer pH 7.6 at room temperature (0.1 M), magnesium chloride (5 mM aqueous solution), microsomal protein (1 mg/mL for human) and the test compound at a final concentration of 1 μM. Following a short preincubation period at 37° C., the reactions were initiated by addition of betanicotinamide adenine dinucleotide phosphate, reduced form (NADPH, 1 mM), and terminated by transferring an aliquot into solvent after different time points. After centrifugation (10000 g, 5 min), an aliquot of the supernatant was assayed by LC-MS/MS for the amount of parent compound. The half-life was determined by the slope of the semi-logarithmic plot of the concentration-time profile.
In general terms: Microsomes from liver hold many membrane-bound enzymes, among them those of drug oxidation.

Another series deals with T2, human MDR1 (P-gp) (Homo sapiens, UniProt P08183).
T2 construct: expressed in transfected cells; host or cells: MDCKII (Madin-Darby canine kidney) cells
The experiment in a line: MDCK assay MDR-1 (p-GP): permeability across MDCK-MDR1 monolayers. It counts as in vitro ADME. The settings on record: for Papp A→B: MDCK-MDR1 monolayers, apical-to-basal, pH 7.4, 1 or 10 μM; for efflux ratio: pH 7.4, MDCK-MDR1, Papp (b-a) divided by Papp (a-b). The method, then:
The MDCK assays provide information on the potential of a compound to pass the blood brain barrier. Permeability measurements across polarized, confluent MDCK-MDR1 cell monolayers grown on permeable filter supports are used as an in vitro absorption model: apparent permeability coefficients (PE) of the compounds across the MDCK-MDR1 cell monolayers are measured (pH 7.4, 37° C.) in apical-to-basal (AB) and basal-to-apical (BA) transport direction. The AB permeability (PEAB) represents drug absorption from the blood into the brain and the BA permeability (PEBA) drug efflux from the brain back into the blood via both, passive permeability as well as active transport mechanisms mediated by efflux and uptake transporters that are expressed on the MDCK-MDR1 cells, predominantly by the overexpressed human MDR1. Identical or similar permeabilities in both transport directions indicate passive permeation, vectorial permeability points to additional active transport mechanisms. Higher PEBA than PEAB (PEBA/PEAB >5) indicates the involvement of active efflux mediated by MDR1, which might compromise the goal to achieve sufficient brain exposure. Therefore, this assay provides valuable support for selection of compounds applicable for further in vivo testing. High permeability not limited by efflux at the blood brain barrier is a favourable characteristic for compounds that are to be used for drugs acting primarily in the CNS. Similar concepts are applicable to the MDCK BCRP assay and its interpretation; consequently, to ensure high permeability at the blood brain barrier, it is highly preferred to minimize the efflux (efflux <5) at both MDR1 and BCRP transporters.
Apparent permeability coefficients (Papp) of the compounds across the MDCK-MDR1 monolayers (MDCKII cells transfected with human MDR1 cDNA expression plasmid) are measured in apical-to-basal (AB) and basal-to-apical (BA) direction.
MDCK-MDR1 cells (6×10^5 cells/cm^2) are seeded on filter inserts (Corning, Transwell, polycarbonate, 0.4 μm pore size) and cultured for 9 to 10 days. Compounds dissolved in DMSO stock solution (1-20 mM) are diluted with HTP-4 aqueous buffer (128.13 mM NaCl, 5.36 mM KCl, 1 mM MgSO4, 1.8 mM CaCl2, 4.17 mM NaHCO3, 1.19 mM Na2HPO4, 0.41 mM NaH2PO4, 15 mM HEPES, 20 mM glucose, pH 7.4) supplemented with 0.25% BSA to prepare the transport solutions (final concentration: 1 or 10 μM, final DMSO <=0.5%). The transport solution is applied to the apical or basolateral donor side for measuring A-B or B-A permeability, respectively. The receiver side contains HTP-4 buffer supplemented with 0.25% BSA. Samples are collected at the start and end of experiment from the donor and at various time intervals for up to 2 hours also from the receiver side for concentration measurement by HPLC-MS/MS. Sampled receiver volumes are replaced with fresh receiver solution. Efflux ratio is calculated dividing the Papp (b-a) values by the Papp (a-b) values.

T1 sequence (Q13224 27-1484, other chains not shown): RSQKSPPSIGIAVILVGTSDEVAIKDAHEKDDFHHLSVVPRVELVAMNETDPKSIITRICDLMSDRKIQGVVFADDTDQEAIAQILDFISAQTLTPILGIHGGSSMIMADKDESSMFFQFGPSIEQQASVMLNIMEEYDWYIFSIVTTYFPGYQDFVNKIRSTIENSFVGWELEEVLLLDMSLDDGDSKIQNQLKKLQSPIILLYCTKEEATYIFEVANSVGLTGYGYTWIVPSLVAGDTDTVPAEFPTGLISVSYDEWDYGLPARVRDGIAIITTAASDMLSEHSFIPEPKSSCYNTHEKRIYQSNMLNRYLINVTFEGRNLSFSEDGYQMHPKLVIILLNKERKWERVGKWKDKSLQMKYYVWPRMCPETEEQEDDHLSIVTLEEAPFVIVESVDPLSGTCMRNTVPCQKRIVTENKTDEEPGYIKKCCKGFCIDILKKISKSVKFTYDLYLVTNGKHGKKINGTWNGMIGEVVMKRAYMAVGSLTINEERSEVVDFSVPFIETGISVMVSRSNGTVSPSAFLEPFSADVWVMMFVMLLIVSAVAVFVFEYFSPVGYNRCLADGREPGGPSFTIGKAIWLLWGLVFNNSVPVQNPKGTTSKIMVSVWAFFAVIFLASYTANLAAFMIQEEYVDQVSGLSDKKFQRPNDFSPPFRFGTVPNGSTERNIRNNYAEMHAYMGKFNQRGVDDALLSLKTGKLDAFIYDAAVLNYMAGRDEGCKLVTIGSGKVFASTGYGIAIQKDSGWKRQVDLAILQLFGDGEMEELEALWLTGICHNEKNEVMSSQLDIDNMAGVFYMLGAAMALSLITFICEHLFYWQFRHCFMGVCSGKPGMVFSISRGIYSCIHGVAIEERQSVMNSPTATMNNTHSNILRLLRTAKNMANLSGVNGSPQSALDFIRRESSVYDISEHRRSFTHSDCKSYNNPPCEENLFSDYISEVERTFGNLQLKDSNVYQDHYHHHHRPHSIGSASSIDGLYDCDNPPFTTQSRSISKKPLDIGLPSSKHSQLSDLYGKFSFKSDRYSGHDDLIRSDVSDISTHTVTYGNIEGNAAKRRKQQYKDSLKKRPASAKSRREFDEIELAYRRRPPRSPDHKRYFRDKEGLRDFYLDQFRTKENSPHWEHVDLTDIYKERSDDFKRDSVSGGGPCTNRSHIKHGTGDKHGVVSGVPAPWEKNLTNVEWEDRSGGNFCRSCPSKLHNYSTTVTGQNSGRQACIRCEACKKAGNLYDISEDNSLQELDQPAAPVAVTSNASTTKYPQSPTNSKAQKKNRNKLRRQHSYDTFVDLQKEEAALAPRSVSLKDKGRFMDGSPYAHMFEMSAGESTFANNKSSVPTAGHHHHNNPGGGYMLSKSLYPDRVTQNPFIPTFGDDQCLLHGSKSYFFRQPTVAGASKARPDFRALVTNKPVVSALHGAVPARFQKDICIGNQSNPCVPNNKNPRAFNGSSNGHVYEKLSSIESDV
T2 sequence (P08183 whole entry): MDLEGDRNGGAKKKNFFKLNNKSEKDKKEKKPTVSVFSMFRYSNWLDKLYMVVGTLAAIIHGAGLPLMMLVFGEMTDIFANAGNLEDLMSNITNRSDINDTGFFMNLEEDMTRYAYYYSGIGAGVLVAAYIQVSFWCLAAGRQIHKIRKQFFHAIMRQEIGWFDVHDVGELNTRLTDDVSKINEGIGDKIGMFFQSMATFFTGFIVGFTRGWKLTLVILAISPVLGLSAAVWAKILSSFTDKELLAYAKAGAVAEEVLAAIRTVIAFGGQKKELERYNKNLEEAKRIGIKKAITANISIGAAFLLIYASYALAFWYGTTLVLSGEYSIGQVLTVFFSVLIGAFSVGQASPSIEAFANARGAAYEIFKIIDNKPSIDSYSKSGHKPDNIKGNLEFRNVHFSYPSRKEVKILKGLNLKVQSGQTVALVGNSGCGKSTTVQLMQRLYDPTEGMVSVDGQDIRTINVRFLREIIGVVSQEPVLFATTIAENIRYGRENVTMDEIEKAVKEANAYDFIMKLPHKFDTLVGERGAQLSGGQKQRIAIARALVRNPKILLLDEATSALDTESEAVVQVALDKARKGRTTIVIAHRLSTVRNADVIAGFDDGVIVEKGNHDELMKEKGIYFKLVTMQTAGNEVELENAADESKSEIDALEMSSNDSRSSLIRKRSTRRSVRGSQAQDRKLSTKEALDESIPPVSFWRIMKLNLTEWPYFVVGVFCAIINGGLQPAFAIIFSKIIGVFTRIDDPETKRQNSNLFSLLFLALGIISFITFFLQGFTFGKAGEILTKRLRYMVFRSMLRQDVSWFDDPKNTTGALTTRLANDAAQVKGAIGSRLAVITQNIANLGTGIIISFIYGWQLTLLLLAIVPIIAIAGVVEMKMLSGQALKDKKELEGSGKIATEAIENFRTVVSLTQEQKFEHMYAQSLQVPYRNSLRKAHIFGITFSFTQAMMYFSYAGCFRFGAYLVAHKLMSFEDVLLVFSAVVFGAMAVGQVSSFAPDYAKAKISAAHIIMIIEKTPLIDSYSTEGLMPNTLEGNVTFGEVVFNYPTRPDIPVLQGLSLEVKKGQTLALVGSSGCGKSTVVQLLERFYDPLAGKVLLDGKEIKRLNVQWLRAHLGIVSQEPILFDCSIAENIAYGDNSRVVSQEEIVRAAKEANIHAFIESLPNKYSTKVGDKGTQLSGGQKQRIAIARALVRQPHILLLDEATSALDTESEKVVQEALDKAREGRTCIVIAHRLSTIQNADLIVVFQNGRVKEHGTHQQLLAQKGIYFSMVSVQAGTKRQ

Consider `Cc1cc(F)ccc1COC(=O)N1CCO[C@H](c2nc3cccnc3[nH]2)C1` [Example 4], for which the IC50 at NMDA NR1/NR2B receptor worked out at 228 nM. Moreover, the half-life at 1 µM in series [1] was determined as 24 min.

Take `Cc1ccnc2[nH]c([C@@H]3CN(C(=O)OCc4ccc(F)cc4)CCO3)nc12` [Example 6]: at NMDA NR1/NR2B receptor, the 50% inhibitory concentration (IC50) came to 475 nM. Besides, on human MDR1 (P-gp), the Papp A→B stood at 44.4 ×10⁻⁶ cm/s and the efflux ratio was found to be 1.48. For the same compound, the half-life at 1 µM in series [1] amounted to 40 min.

For `Cc1cccc(COC(=O)N2CCO[C@H](c3nc4cccnc4[nH]3)C2)c1` [Example 9], the 50% inhibitory concentration (IC50) on NMDA NR1/NR2B receptor worked out at 293 nM. Besides, on human MDR1 (P-gp), the apical-to-basolateral permeability (Papp A→B) is 49 ×10⁻⁶ cm/s and the efflux ratio worked out at 1.16. Also, in series [1], the half-life at 1 µM is 22 min.

`O=C(OCc1ccc(F)c(F)c1)N1CCO[C@H](c2nc3cccnc3[nH]2)C1` [Example 24]: the IC50 on NMDA NR1/NR2B receptor amounted to 748 nM.

Regarding `O=C(OCc1ccc(Cl)c(F)c1)N1CCO[C@H](c2nc3cccnc3[nH]2)C1` [Example 25], the half-inhibitory concentration (IC50) on NMDA NR1/NR2B receptor was found to be 477 nM.

The values are drawn from patent US10849907B2, “Imidazopyridine derivatives and the use thereof as medicament” (Boehringer Ingelheim International GmbH, priority 2017, dated 2020).
